Test system: bromodomain
Experiment: at least one of the bromodomain cell assays of Example 57
Format: cell-based
Settings: at least one of the bromodomain cell assays described in Example 57; read-out: IC50 in at least one of the bromodomain cell assays

| IC50 [µM] | Compound |
| --- | --- |
| < 10 | Cc1noc(C)c1-c1cnc2c(-c3ccc(C(=O)OC(C)C)cc3)cn([C@H](c3ccccc3)c3ccccn3)c2c1 [P-0728, isopropyl 4-[6-(3,5-dimethylisoxazol-4-yl)-1-[(R)-phenyl(2-pyridyl)methyl]pyrrolo[3,2-b]pyridin-3-yl]benzoate] |
| < 10 | Cc1ccc(-c2cn([C@@H](c3ccccn3)C3CCCC3)c3cc(-c4c(C)noc4C)cnc23)cc1 [P-0821, 4-[1-[(R)-cyclopentyl(2-pyridyl)methyl]-3-(p-tolyl)pyrrolo[3,2-b]pyridin-6-yl]-3,5-dimethyl-isoxazole] |
| < 10 | Cc1noc(C)c1-c1ccc2c(-c3ccc(C(=O)O)cc3)cn([C@@H](c3ccccc3)c3ccccn3)c2c1 [P-0751, 4-[6-(3,5-dimethylisoxazol-4-yl)-1-[(S)-phenyl(2-pyridyl)methyl]indol-3-yl]benzoic acid] |
| < 10 | Cc1noc(C)c1-c1cnc2c(-c3ncc(C(=O)O)cn3)cn(CC3CCC(F)(F)CC3)c2c1 [P-0614, 2-[1-[(4,4-difluorocyclohexyl)methyl]-6-(3,5-dimethylisoxazol-4-yl)pyrrolo[3,2-b]pyridin-3-yl]pyrimidine-5-carboxylic acid] |
| < 10 | Cc1noc(C)c1-c1cnc2c(-c3ccc(C(=O)O)cc3)cn([C@@H](c3ccccn3)C3CCCC3)c2c1 [P-0820, 4-[1-[(R)-cyclopentyl(2-pyridyl)methyl]-6-(3,5-dimethylisoxazol-4-yl)pyrrolo[3,2-b]pyridin-3-yl]benzoic acid] |
| < 10 | Cc1noc(C)c1-c1cnc2c(-c3ccc(C(=O)O)cc3)cn(CC3CC4CC4C3)c2c1 (centres unmarked) [P-0621, 4-[1-(3-bicyclo[3.1.0]hexanylmethyl)-6-(3,5-dimethylisoxazol-4-yl)pyrrolo[3,2-b]pyridin-3-yl]benzoic acid] |
| < 10 | CCOC(=O)c1ccc(-c2cn([C@H](c3ccccc3)c3ccccn3)c3cc(-c4c(C)noc4C)cnc23)cc1 [P-0727, ethyl 4-[6-(3,5-dimethylisoxazol-4-yl)-1-[(R)-phenyl(2-pyridyl)methyl]pyrrolo[3,2-b]pyridin-3-yl]benzoate] |

Second part, the compound before the results:

| Compound | IC50 [µM] |
| --- | --- |
| Cc1noc(C)c1-c1cnc2c(-c3ccc(C(C)(C)C)cc3)cn([C@H](c3ccccc3)c3ccccn3)c2c1 [P-0814, 4-[3-(4-tert-butylphenyl)-1-[(R)-phenyl(2-pyridyl)methyl]pyrrolo[3,2-b]pyridin-6-yl]-3,5-dimethyl-isoxazole] | < 10 |
| Cc1noc(C)c1-c1ccc2c(-c3ccc(C#N)nc3)cn([C@@H](c3ccccc3)c3ccccn3)c2c1 [P-0754, 5-[6-(3,5-dimethylisoxazol-4-yl)-1-[(S)-phenyl(2-pyridyl)methyl]indol-3-yl]pyridine-2-carbonitrile] | < 10 |
| Cc1noc(C)c1-c1ccc2c(-c3ccc(CO)cc3)cn([C@@H](c3ccccc3)c3ccccn3)c2c1 [P-0753, [4-[6-(3,5-dimethylisoxazol-4-yl)-1-[(S)-phenyl(2-pyridyl)methyl]indol-3-yl]phenyl]methanol] | < 10 |
| Cc1ccc(-c2cn([C@@H](C)c3ccccn3)c3cc(-c4cc(C)c(=O)n(C)c4)cnc23)cc1 [P-0791, 1,3-dimethyl-5-[3-(p-tolyl)-1-[(1S)-1-(2-pyridyl)ethyl]pyrrolo[3,2-b]pyridin-6-yl]pyridin-2-one] | < 10 |
| Cc1noc(C)c1-c1cnc2c(-c3ccc(CO)cc3)cn([C@H](c3ccccc3)c3ccccn3)c2c1 [P-0724, [4-[6-(3,5-dimethylisoxazol-4-yl)-1-[(R)-phenyl(2-pyridyl)methyl]pyrrolo[3,2-b]pyridin-3-yl]phenyl]methanol] | < 10 |
| Cc1noc(C)c1-c1cnc2c(I)cn(C(c3ccccc3)c3ccccc3)c2c1 [P-0616, 4-(1-benzhydryl-3-iodo-pyrrolo[3,2-b]pyridin-6-yl)-3,5-dimethyl-isoxazole] | < 10 |
| Cc1noc(C)c1-c1cnc2c(c1)c(C(c1ccccc1)c1ccccc1)cn2-c1ccc(C(=O)O)cc1 [P-0740, 4-[3-benzhydryl-5-(3,5-dimethylisoxazol-4-yl)pyrrolo[2,3-b]pyridin-1-yl]benzoic acid] | < 10 |

From patent US10519177B2, “Heterocyclic compounds and uses thereof” (Plexxikon Inc., priority 2013, dated 2019)
